# Measured values as given in the supplement of paper PMC10307832.
# Tests used:
# Assay in all cases: relative viability (nuclei count vs DMSO), 5 days (fraction); higher = more cells survive
# BEN = system: BEN
# How it was run: (§1)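 Five library-drug doses in √10 steps were combined with a fixed anchor-drug dose, or a single drug was given alone, by pin tool to lung cancer cell lines in 1536-well plates the day after seeding. Nuclei were stained and counted after 5 days. Relative viability is the nuclei count in treated wells over that in vehicle wells, taken as the median of duplicate plates.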
# RERF-LC-KJ = system: RERF-LC-KJ
# How it was run: as §1
# NCI-H1975 = system: NCI-H1975
# How it was run: as §1
# NCI-H1993 = system: NCI-H1993
# How it was run: as §1
# 201T = system: 201T
# How it was run: as §1
# SK-LU-1 = system: SK-LU-1
# How it was run: as §1
# NCI-H1734 = system: NCI-H1734
# How it was run: as §1
# NCI-H596 = system: NCI-H596
# How it was run: as §1
# NCI-H1650 = system: NCI-H1650
# How it was run: as §1
# EKVX = system: EKVX
# How it was run: as §1
# LC-2-ad = system: LC-2-ad
# How it was run: as §1
# HCC-15 = system: HCC-15
# How it was run: as §1
# NCI-H3122 = system: NCI-H3122
# How it was run: as §1
# LU99A = system: LU99A
# How it was run: as §1
# NCI-H1755 = system: NCI-H1755
# How it was run: as §1
# HCC-366 = system: HCC-366
# How it was run: as §1
# HARA = system: HARA
# How it was run: as §1
# LXF-289 = system: LXF-289
# How it was run: as §1
# NCI-H1944 = system: NCI-H1944
# How it was run: as §1
# COR-L 105 = system: COR-L 105
# How it was run: as §1
# HCC-827 = system: HCC-827
# How it was run: as §1
# COR-L23 = system: COR-L23
# How it was run: as §1
# HCC-78 = system: HCC-78
# How it was run: as §1
smiles,measurement,setting,value
O=C(O)CCCCC(CCSCc1ccccc1)SCc1ccccc1 (stereo not drawn) [CPI-613] + Nc1ncn([C@H]2C[C@H](O)[C@@H](CO)O2)c(=O)n1 [Decitabine] (partner 2 µM),relative viability,BEN; first compound 5 µM,0.773
same,relative viability,BEN; first compound 15.81 µM,0.649
same,relative viability,BEN; first compound 50 µM,0.802
same,relative viability,BEN; first compound 158.11 µM,0.625
same,relative viability,BEN; first compound 500 µM,0.608
same,relative viability,RERF-LC-KJ; first compound 5 µM,0.663
same,relative viability,RERF-LC-KJ; first compound 15.81 µM,0.619
same,relative viability,RERF-LC-KJ; first compound 50 µM,0.643
same,relative viability,RERF-LC-KJ; first compound 158.11 µM,0.272
same,relative viability,RERF-LC-KJ; first compound 500 µM,0.199
same,relative viability,NCI-H1975; first compound 5 µM,0.391
same,relative viability,NCI-H1975; first compound 15.81 µM,0.413
same,relative viability,NCI-H1975; first compound 50 µM,0.399
same,relative viability,NCI-H1975; first compound 158.11 µM,0.412
same,relative viability,NCI-H1975; first compound 500 µM,0.0581
same,relative viability,NCI-H1993; first compound 5 µM,0.643
same,relative viability,NCI-H1993; first compound 15.81 µM,0.56
same,relative viability,NCI-H1993; first compound 50 µM,0.679
same,relative viability,NCI-H1993; first compound 158.11 µM,0.61
same,relative viability,NCI-H1993; first compound 500 µM,0.327
same,relative viability,201T; first compound 5 µM,0.848
same,relative viability,201T; first compound 15.81 µM,0.778
same,relative viability,201T; first compound 50 µM,0.841
same,relative viability,201T; first compound 158.11 µM,0.194
same,relative viability,201T; first compound 500 µM,0.211
same,relative viability,SK-LU-1; first compound 5 µM,0.693
same,relative viability,SK-LU-1; first compound 15.81 µM,0.527
same,relative viability,SK-LU-1; first compound 50 µM,0.533
same,relative viability,SK-LU-1; first compound 158.11 µM,0.314
same,relative viability,SK-LU-1; first compound 500 µM,0.0957
same,relative viability,NCI-H1734; first compound 5 µM,0.488
same,relative viability,NCI-H1734; first compound 15.81 µM,0.46
same,relative viability,NCI-H1734; first compound 50 µM,0.437
same,relative viability,NCI-H1734; first compound 158.11 µM,0.409
same,relative viability,NCI-H1734; first compound 500 µM,0.111
same,relative viability,NCI-H596; first compound 5 µM,1.13
same,relative viability,NCI-H596; first compound 15.81 µM,0.965
same,relative viability,NCI-H596; first compound 50 µM,0.98
same,relative viability,NCI-H596; first compound 158.11 µM,0.866
same,relative viability,NCI-H596; first compound 500 µM,0.111
same,relative viability,NCI-H1650; first compound 5 µM,0.475
same,relative viability,NCI-H1650; first compound 15.81 µM,0.443
same,relative viability,NCI-H1650; first compound 50 µM,0.332
same,relative viability,NCI-H1650; first compound 158.11 µM,0.169
same,relative viability,NCI-H1650; first compound 500 µM,0.0363
same,relative viability,EKVX; first compound 5 µM,0.29
same,relative viability,EKVX; first compound 15.81 µM,0.348
same,relative viability,EKVX; first compound 50 µM,0.423
same,relative viability,EKVX; first compound 500 µM,0.397
same,relative viability,LC-2-ad; first compound 5 µM,0.781
same,relative viability,LC-2-ad; first compound 15.81 µM,0.859
same,relative viability,LC-2-ad; first compound 50 µM,0.705
same,relative viability,LC-2-ad; first compound 158.11 µM,0.578
same,relative viability,LC-2-ad; first compound 500 µM,0.0132
same,relative viability,HCC-15; first compound 5 µM,0.594
same,relative viability,HCC-15; first compound 15.81 µM,0.592
same,relative viability,HCC-15; first compound 50 µM,0.547
same,relative viability,HCC-15; first compound 158.11 µM,0.265
same,relative viability,HCC-15; first compound 500 µM,0.0057
same,relative viability,NCI-H3122; first compound 5 µM,0.344
same,relative viability,NCI-H3122; first compound 15.81 µM,0.439
same,relative viability,NCI-H3122; first compound 50 µM,0.481
same,relative viability,NCI-H3122; first compound 158.11 µM,0.376
same,relative viability,NCI-H3122; first compound 500 µM,0.185
same,relative viability,LU99A; first compound 5 µM,0.886
same,relative viability,LU99A; first compound 15.81 µM,0.79
same,relative viability,LU99A; first compound 50 µM,0.815
same,relative viability,LU99A; first compound 158.11 µM,0.79
same,relative viability,LU99A; first compound 500 µM,0.219
same,relative viability,NCI-H1755; first compound 5 µM,0.732
same,relative viability,NCI-H1755; first compound 15.81 µM,0.738
same,relative viability,NCI-H1755; first compound 50 µM,0.67
same,relative viability,NCI-H1755; first compound 158.11 µM,0.699
same,relative viability,NCI-H1755; first compound 500 µM,0.543
same,relative viability,HCC-366; first compound 5 µM,0.339
same,relative viability,HCC-366; first compound 15.81 µM,0.31
same,relative viability,HCC-366; first compound 50 µM,0.381
same,relative viability,HCC-366; first compound 158.11 µM,0.202
same,relative viability,HCC-366; first compound 500 µM,0.0146
same,relative viability,HARA; first compound 5 µM,0.494
same,relative viability,HARA; first compound 15.81 µM,0.467
same,relative viability,HARA; first compound 50 µM,0.575
same,relative viability,HARA; first compound 158.11 µM,0.289
same,relative viability,HARA; first compound 500 µM,0.111
same,relative viability,LXF-289; first compound 5 µM,0.369
same,relative viability,LXF-289; first compound 15.81 µM,0.375
same,relative viability,LXF-289; first compound 50 µM,0.365
same,relative viability,LXF-289; first compound 158.11 µM,0.272
same,relative viability,LXF-289; first compound 500 µM,0.0864
same,relative viability,NCI-H1944; first compound 5 µM,0.429
same,relative viability,NCI-H1944; first compound 15.81 µM,0.406
same,relative viability,NCI-H1944; first compound 50 µM,0.395
same,relative viability,NCI-H1944; first compound 158.11 µM,0.277
same,relative viability,NCI-H1944; first compound 500 µM,0.168
same,relative viability,COR-L 105; first compound 5 µM,0.68
same,relative viability,COR-L 105; first compound 15.81 µM,0.671
same,relative viability,COR-L 105; first compound 50 µM,0.668
same,relative viability,COR-L 105; first compound 158.11 µM,0.375
same,relative viability,COR-L 105; first compound 500 µM,0.22
same,relative viability,HCC-827; first compound 5 µM,0.363
same,relative viability,HCC-827; first compound 15.81 µM,0.31
same,relative viability,HCC-827; first compound 50 µM,0.359
same,relative viability,HCC-827; first compound 158.11 µM,0.301
same,relative viability,HCC-827; first compound 500 µM,0.29
same,relative viability,COR-L23; first compound 5 µM,0.494
same,relative viability,COR-L23; first compound 15.81 µM,0.367
same,relative viability,COR-L23; first compound 50 µM,0.469
same,relative viability,COR-L23; first compound 158.11 µM,0.229
same,relative viability,COR-L23; first compound 500 µM,0.0175
same,relative viability,HCC-78; first compound 15.81 µM,0.709
same,relative viability,HCC-78; first compound 50 µM,0.836
same,relative viability,HCC-78; first compound 158.11 µM,0.691
same,relative viability,HCC-78; first compound 500 µM,0.742
